Laboratory results as given in patent US20250339404A1, “COMBINATION THERAPY USING A CD47-SIRP alpha BLOCKING AGENT AND AZACITIDINE” (Aurigene Oncology Limited, priority 2024, published 2025).
Entries after “also recorded” stand apart in the source; their conditions may differ. Where a name gives a salt, the structure may show the parent alone.

How the values were obtained:
[1] = tested on: HL-60 cells; test: Phagocytosis of HL-60 cells by human macrophages; type: cell-based
Method: The objective of this study was to determine the effect of Calcium salt of compound of formula (I) and azacitidine mediated induction of phagocytosis of HL-60 cells by human macrophages. Different doses of Calcium salt of compound of formula (I) were tested to determine increase in phagocytosis of HL-60 cells (with or without azacitidine treatment) by macrophages isolated from healthy human volunteers.
Preparation of test compound: 20 mM stock concentration of Calcium salt of compound of formula (I) was prepared. The stock was further diluted to get intermediate and final concentrations. The final assay volume was 200 μL. Medium used for dilution is RPMI media. Four concentrations of Calcium salt of compound of formula (I) ranging from 10 μM to 0.3 μM were used in the assay.
Preparation of macrophage culture media: 5 mL of FBS and 10 μL of recombinant human M CSF (100 μg/mL stock) was added to 45 mL of RPMI to prepare macrophage culture media as and when required.
Preparation of HL-60 cell culture media: 10 mL of FBS was added to 40 mL of IMDM media to prepare HL-60 cell culture media.
Preparation of working stock of azacitidine: A 20 mM stock of azacitidine prepared by adding 172.1 μL of DMSO in 0.84 mg of azacitidine. 4.5 μL of 20 mM stock of azacitidine was added to 25.5 μL of DMSO to prepare 3 mM azacitidine working stock solution. This is 1000× of the desired final treatment concentration of 3 μM.
Preparation of working stock of Mouse IgG1 Kappa isotype control: Molarity of mouse IgG1 kappa isotype control antibody was calculated using online molarity calculator (https://www.graphpad.com/quickcalcs/Molarityform.cfm). Formula weight of antibody was 150 KDa. Molarity of isotype control antibody stock was 6.6667 μM. 3 μL of isotype control antibody stock solution was added to 197 μL RPMI media to prepare 100 nM of working stock solution. This is 10× stock of the required conc of isotype control. Preparation of working stock of anti-human CD47 antibody Molarity of anti-human CD47 antibody was calculated using online molarity calculator (https://www.graphpad.com/quickcalcs/Molarityform.cfm). Formula weight of anti-Human CD47 antibody was 150 KDa. Molarity of anti-human CD47 antibody stock was 6.6667 μM. This stock of anti-human CD47 antibody was further diluted to get intermediate and final concentrations as described below. 3 μL of anti-human CD47 antibody stock solution was added to 197 μL RPMI media to prepare 100 nM of working stock solution (10×).
Preparation of test system: 90 mL whole blood from healthy volunteer was collected in a Na-Heparin vacutainer and stored at room temperature until use. PBMCs isolated from blood were used for isolating monocytes and to differentiate them into macrophages for the phagocytosis assay.
90 mL blood was collected from healthy volunteer in NA-Heparin vacutainer. PBMCs were isolated and were resuspended in 50 mL serum free RPMI 1640 media. For isolation of monocytes, 10 mL of PBMC cell suspension was seeded in each T75 culture flask (total 5 flasks) and were cultured at 37 degree for 2 hours. Monocytes were attached to culture flask by adherence method. Media from these flasks was discarded and attached monocytes were washed once with prewarmed PBS. Monocytes were further cultured in 10 mL of macrophage culture media and were differentiated to macrophages for 10 days. Media from each flask was changed every alternate day or after every 2 days with fresh macrophage culture media.
A vial of HL-60 cell stock was taken from liquid nitrogen. Cells were thawed in a water bath at 37° C. till the last crystal is thawed. Cells were transferred to 50 mL of culture media in a falcon tube and centrifuged at 800 rpm for 8 minutes. Cells were further cultured in 20 mL of HL-60 cell culture media in T75 flasks at 37° C. at 5% CO2 for 24 hrs. After 24 hrs, the cells were centrifuged at 800 rpm for 5 mins. The cells were cultured in 25 mL of complete media at 37° C. and 5% CO2 for 2 more days. […]

[2] = Phase I/IIa open label dose-escalation safety study in subjects with relapsed advanced malignancies; type: in vivo, human; conditions: for Grade 3 or 4 toxicities / adverse events: correlated with the Test Product
From the text: Study objective: To evaluate the overall safety profile of the compound of formula (I) in human subjects with relapsed advanced malignancies.
The following table summarizes the (final) study protocol.

[3] = tested on: Chemokines (MCP-3, MCP-1, MIP-1α & MIP-1β) and Cytokines (IL-12p40, IL-1A, IL-8, TNFα & IL-6); test: Pharmacodynamic biomarkers in the Phase I/IIa study; type: in vivo, human; conditions: all cohorts, as a result of treatment
From the text: Chemokines are known for their role in recruitment of macrophages to sites of infection, damage, or tumors for the purpose of phagocytosis and healing. An upregulation of chemokines followed by administration of the compound of formula (I) is indicative of the CD-47 inhibition mediated enhanced phagocytosis. Disruption of the IL-6-STAT3 axis is known to reduce the ability of tumor cells to escape phagocytosis (Jing Chen et al. Oncoimmunology 2019, VOL. 8, NO. 11, e1652540). A drop in IL-6 level is also indicative of macrophage activation.

[4] = Azacitidine 3 μM alone, HL-60 cells treated 72 hrs
[5] = 0.3 μM, DMSO treated HL-60 cells
[6] = 10 μM, DMSO treated HL-60 cells, normalized to 10 nM anti-human CD47
[7] = all subjects, across dose levels 25-400 mg BID oral

Nc1ncn([C@@H]2O[C@H](CO)[C@@H](O)[C@H]2O)c(=O)n1 [Azacitidine, 4-Amino-1-β-D-ribofuranosyl-s-triazin-2(1H)-one]
increase in phagocytosis of HL-60 cells ([1]; 3 μM azacitidine treatment of HL-60 cells alone): 71.26% | % Normalized phagocytosis Replicate 1 [1, 4]: 76.25% | % Normalized phagocytosis Replicate 2 [1, 4]: 66.28%

N=C(N)NCCC[C@H](NC(=O)N1CCCC1C(=O)O)c1nc([C@@H](N)CCC(=O)O)no1 (stereo partly shown) [Calcium salt of compound of formula (I)]
Grade 3 or 4 toxicities / adverse events ([2]; all cohorts): No Grade 3 or 4 toxicities | causality assessment of the serious adverse events ([2]; by principal investigators and study sponsor): Not Related | serious adverse events reported ([2]; one in cohort 2 (50 mg BID), one in cohort 3 (100 mg BID)): Two serious adverse events were reported | % Normalized phagocytosis Replicate 1 [1, 5]: −1.92% | % Normalized phagocytosis Replicate 2 [1, 5]: −10.34% | % Normalized phagocytosis Replicate 1 ([1]; 1 μM, DMSO treated HL-60 cells): 19.54% | % Normalized phagocytosis Replicate 2 ([1]; 1 μM, DMSO treated HL-60 cells): 4.98% | % Normalized phagocytosis Replicate 1 ([1]; 3 μM, DMSO treated HL-60 cells): −10.34% | % Normalized phagocytosis Replicate 2 ([1]; 3 μM, DMSO treated HL-60 cells): −14.94% | increase in phagocytosis of HL-60 cells ([1]; 10 μM alone): 54.79% | % Normalized phagocytosis Replicate 1 [1, 6]: 62.35% | % Normalized phagocytosis Replicate 2 [1, 6]: 47.13%

N=C(N)NCCC[C@H](NC(=O)N1CCC[C@@H]1C(=O)O)c1nc([C@@H](N)CCC(=O)O)no1 [Compound of formula (I)]
IL12p40, TNFα, MCP-1, MIP-1α, MIP-1β and MCP-3 levels [3]: a trend towards upregulation | IL-6 and IL-1α levels [3]: a trend towards downregulation | severity of reported non-serious adverse events ([2]; all cohorts, NCI CTCAE v 5.0): mild to moderate | Grade 3 or 4 toxicities / adverse events ([2]; all cohorts): no grade 3 or grade 4 adverse events | Grade 3 or 4 toxicities / adverse events ([2]; all cohorts, listed as compound of formula (I)): no grade 3 or grade 4 adverse events | DLT (Dose Limiting Toxicity) [2, 7]: without any DLT | hemolytic anemia [2, 7]: No hemolytic anemia was reported in any subject; also recorded: no hemolytic anemia in any of the tested subjects | tolerability of treatment ([2]; all subjects, across dose levels 25-400 mg BID oral, up to 4 cycles of 28 days): well tolerated | hemolytic anemia ([2]; all subjects, across dose levels 25-400 mg BID oral, listed as compound of formula (I)): no hemolytic anemia in any of the tested subjects | safe and tolerable total daily dose ([2]; oral, total daily dose): ≤ 800 mg | safe and tolerable dose ([2]; per oral BID): ≤ 400 mg | Serious Adverse Reactions (SAR's) or Suspected Unexpected Serious Adverse Reactions (SUSAR's) ([2]; reporting period): No Serious Adverse Reactions (SAR's) or Suspected Unexpected Serious Adverse Reactions (SUSAR's) were reported | dose reductions due to treatment-related AEs ([2]; reporting period): no dose reductions
